According to paper PMC9048505 (RSC Advances, 2020):

Assays:
[1] = tested on: HCT-116; experiment: In vitro anti-proliferative activity, MTT assay, HCT-116; type: cell-based, human; conditions: for IC50: Homo sapiens, HCT-116, MTT, 24 h treatment, mean ± S.D. of three separate experiments
Protocol: (§1) The cells were obtained from ATCC (American Type Culture Collection) via the Holding company for biological products and vaccines (VACSERA) (Cairo, Egypt). […] After incubation period, the cell lines were treated with different concentration of the synthesized compounds and incubated for 24 h. After treatment by 24 h, 20 μL of MTT solution (5 mg mL^−1) was added and incubated for 4 h. Dimethyl sulfoxide (100 μL) was added into each well to dissolve the formed purple formazan. […] The relative cell viability in percentage was calculated as (A570 of treated samples/A570 of untreated sample) X 100.

[2] = tested on: HepG-2; experiment: In vitro anti-proliferative activity, MTT assay, HepG-2; type: cell-based, human; conditions: for IC50: Homo sapiens, HepG2, MTT, 24 h treatment, mean ± S.D. of three separate experiments
Protocol: as §1

[3] = tested on: MCF-7; experiment: In vitro anti-proliferative activity, MTT assay, MCF-7; type: cell-based, human; conditions: for IC50: Homo sapiens, MCF7, MTT, 24 h treatment, mean ± S.D. of three separate experiments
Protocol: as §1

[4] = target: T1, purified bovine tubulin (Bos taurus, UniProt P81947+Q6B856); experiment: In vitro tubulin polymerization assay; type: biochemical; conditions: purified bovine tubulin 10 μM, 37 °C; read-out: IC50 Tubulin polymerization inhibition
T1 construct: purified bovine tubulin (10 μM); from tissue; host or cells: bovine
T1 sequence (Q6B856 whole entry): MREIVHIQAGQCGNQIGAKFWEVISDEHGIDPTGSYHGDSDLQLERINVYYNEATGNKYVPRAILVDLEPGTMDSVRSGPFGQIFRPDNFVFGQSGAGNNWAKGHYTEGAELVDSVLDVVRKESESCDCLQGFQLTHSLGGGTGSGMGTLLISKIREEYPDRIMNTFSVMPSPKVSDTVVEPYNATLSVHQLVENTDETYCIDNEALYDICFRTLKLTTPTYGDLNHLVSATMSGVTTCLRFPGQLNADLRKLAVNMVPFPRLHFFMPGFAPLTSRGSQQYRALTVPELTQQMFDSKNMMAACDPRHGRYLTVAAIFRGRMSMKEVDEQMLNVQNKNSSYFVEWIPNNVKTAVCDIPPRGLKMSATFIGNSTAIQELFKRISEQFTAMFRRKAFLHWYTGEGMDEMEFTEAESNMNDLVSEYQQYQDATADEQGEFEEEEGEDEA
T1 sequence (P81947 whole entry): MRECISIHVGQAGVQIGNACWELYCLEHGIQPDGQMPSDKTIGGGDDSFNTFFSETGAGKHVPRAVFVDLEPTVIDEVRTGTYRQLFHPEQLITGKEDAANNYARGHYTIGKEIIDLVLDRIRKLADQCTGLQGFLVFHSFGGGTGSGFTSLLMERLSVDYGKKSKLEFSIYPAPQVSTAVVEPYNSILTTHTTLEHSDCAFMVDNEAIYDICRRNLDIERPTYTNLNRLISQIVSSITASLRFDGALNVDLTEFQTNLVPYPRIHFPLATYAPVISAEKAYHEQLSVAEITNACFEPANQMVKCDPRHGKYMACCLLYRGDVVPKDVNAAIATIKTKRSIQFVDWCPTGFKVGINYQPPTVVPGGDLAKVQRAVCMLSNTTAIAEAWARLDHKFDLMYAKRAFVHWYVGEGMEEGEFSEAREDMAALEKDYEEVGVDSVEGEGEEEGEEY
Protocol: The inhibition assay on microtubule polymerization was evaluated turbidimetrically using a fluorescent plate reader.[52]

[5] = tested on: HepG-2 cells; experiment: Cell cycle analysis (PI staining, flow cytometry); type: cell-based, human
Protocol: To gain a better insight into the impact of compound 5a on cancer cell growth inhibition, its impact on cell cycle distribution and apoptosis induction was assessed using HepG-2 cells according to the method outlined by Wang et al.[53] In fact, anticancer agents hinder cancer cell growth and multiplication by arresting cell division at distinct checkpoints, and that cells resist apoptosis are highly resistant to cancer treatment.[54]
HepG-2 cells were seeded at density of 2 × 10^5 cells per well and incubated for 24 h in six-well plates. Fetal bovine serum (FBS, 10%) was added, after that cells were incubated at 37 °C and 5% CO2. The medium was replaced with (DMSO 1% v/v) containing the 2.5 μM of compound 5a, then incubated for 48 h, washed with cold phosphate buffered saline (PBS), fixed with 70% ethanol, rinsed with PBS then stained with the DNA fluorochrome PI, kept for 15 min at 37 °C. Then samples were analyzed with a FACS Caliber flow cytometer.[53]

[6] = tested on: HepG-2 cells; experiment: Annexin V-FITC apoptosis assay; type: cell-based, human; conditions: HepG-2, 5a at 2.5 μM for 24 h
Protocol: To further confirm Apoptotic effect of compound 5a in HepG-2 cells, Annexin V and PI double staining assay was performed.[55] In this test, HepG-2 cells were incubated with compound 5a at concentration of 2.5 μM for 24 h.
The effect of the most cytotoxic compound 5a on apoptosis induction was analyzed using Annexin V-FITC/PI apoptosis detection kit. In this test, HepG-2 cells were stained with Annexin V fluorescein isothiocyanate (FITC) and counterstained with propidium iodide (PI). Then, HepG-2 cells in a density of 2 × 10^5 per well were incubated with compound 5a for […]. Next, the cells were trypsinized, washed with phosphate-buffered saline (PBS), and stained for 15 min at 37 °C in the dark. Finally, FACS Caliber flow cytometer was used in analysis process.[55]

Row | Compound | IC50 [1] [µM] | IC50 [3] [µM] | IC50 [4] [µM] | melting point [°C] | times as active as colchicine against HCT-116 ([1]; ratio of IC50 values) [times] | IC50 [2] [µM] | times as active as colchicine against HepG-2 ([2]; ratio of IC50 values) [times] | times as active as colchicine against MCF-7 ([3]; ratio of IC50 values) [times] | Cell cycle distribution % Pre-G1 ([5]; HepG-2, 5a at 2.5 μM for 48 h, control 2.14) [%] | Cell cycle distribution % G2-M ([5]; HepG-2, 5a at 2.5 μM for 48 h, control 5.09) [%] | Cell cycle distribution % S ([5]; HepG-2, 5a at 2.5 μM for 48 h, control 38.15) [%] | Cell cycle distribution % G0-G1 ([5]; HepG-2, 5a at 2.5 μM for 48 h, control 56.76) [%] | effect on cell cycle ([5]; HepG-2 cells) | Necrosis ([6]; control 0.48) [%] | Apoptosis Late ([6]; control 0.64) [%] | Apoptosis Early ([6]; control 1.02) [%] | Apoptosis Total ([6]; control 2.14) [%]
1 | C/C(=N\NC1=N/C(=C/c2ccc(O)cc2)C(=O)S1)c1ccco1 [Compound 8i, 2-(2-((E)-1-(Furan-2-yl)ethylidene)hydrazinyl)-4-((E)-4-hydroxybenzylid-ene)thiazol-5(4H)-one] | 15.6 ± 0.4 | 22.7 ± 0.7 | 0.0478 ± 0.0021 | 293 to 295 |  | 12.5 ± 0.2 |  |  |  |  |  |  |  |  |  |  | 
2 | C/C(=N\NC1=N/C(=C/c2ccc(O)cc2O)C(=O)S1)c1ccco1 [Compound 8l, 4-((E)-2,4-Dihydroxybenzylidene)-2-(2-((E)-1-(furan-2-yl)ethylidene) hydrazinyl) thiazol-5(4H)-one] | 10.28 ± 0.1 | 7.89 ± 0.5 | 0.0132 ± 0.0009 | 282 to 284 |  | 3.73 ± 0.1 |  |  |  |  |  |  |  |  |  |  | 
3 | C/C(=N\NC1=N/C(=C/c2cccs2)C(=O)S1)c1cccs1 [Compound 9a, (E)-2-(2-((E)-1-(Thiophen-2-yl)ethylidene)hydrazinyl)-4-(thiophen-2-ylmethylene)thiazol-5(4H)-one] | 24.2 ± 0.7 | 33.6 ± 0.9 | 0.0391 ± 0.001 | 214 to 216 |  | 21.9 ± 0.9 |  |  |  |  |  |  |  |  |  |  | 

Compounds with a lower IC50 [1], results first:

Row | IC50 [1] [µM] | IC50 [3] [µM] | IC50 [4] [µM] | melting point [°C] | Compound | times as active as colchicine against HCT-116 ([1]; ratio of IC50 values) [times] | IC50 [2] [µM] | times as active as colchicine against HepG-2 ([2]; ratio of IC50 values) [times] | times as active as colchicine against MCF-7 ([3]; ratio of IC50 values) [times] | Cell cycle distribution % Pre-G1 ([5]; HepG-2, 5a at 2.5 μM for 48 h, control 2.14) [%] | Cell cycle distribution % G2-M ([5]; HepG-2, 5a at 2.5 μM for 48 h, control 5.09) [%] | Cell cycle distribution % S ([5]; HepG-2, 5a at 2.5 μM for 48 h, control 38.15) [%] | Cell cycle distribution % G0-G1 ([5]; HepG-2, 5a at 2.5 μM for 48 h, control 56.76) [%] | effect on cell cycle ([5]; HepG-2 cells) | Necrosis ([6]; control 0.48) [%] | Apoptosis Late ([6]; control 0.64) [%] | Apoptosis Early ([6]; control 1.02) [%] | Apoptosis Total ([6]; control 2.14) [%]
4 | 6.41 ± 0.1 | 4.51 ± 0.6 | 0.00952 ± 0.0003 | 202 to 204 | C/C(=N\NC1=N/C(=C/c2cccs2)C(=O)S1)c1ccc(C)cc1 [Compound 5a, (E)-4-(Thiophen-2-ylmethylene)-2-(2-((E)-1-(p-tolyl)ethylidene)hydrazinyl) thiazol-5(4H)-one] | 1.45 | 3.34 ± 0.1 | 2.23 | 2.32 | 15.33 | 20.55 | 39.28 | 40.17 | cell arrest at G2/M phase | 1.54 | 5.54 | 8.25 | 15.33
5 | 5.55 ± 0.1 | 9.15 ± 0.2 | 0.0135 ± 0.0008 | 240 to 242 | COc1ccc(/C=C2/N=C(N/N=C(\C)c3ccco3)SC2=O)cc1OC [Compound 8k, 4-((E)-3,4-Dimethoxybenzylidene)-2-(2-((E)-1-(furan-2-yl)ethylidene)hydra-zinyl)thiazol-5(4H)-one] |  | 4.58 ± 0.1 |  |  |  |  |  |  |  |  |  |  | 
